The values that follow come from US20230212171A1, “ALLOSTERIC EGFR INHIBITORS AND METHODS OF USE THEREOF” (Dana-Farber Cancer Institute, Inc., priority 2020, published 2023).

In one assay the target is EGFR L858R/T790M (Homo sapiens, UniProt P00533, L858R/T790M). Kind of assay: HTRF-based EGFR biochemical assay (L858R/T790M). To be noted: enzyme 0.02 nM, ATP 100 µM, 30 min preincubation. The method, then: (§1) EGFR biochemical activity measurements were carried out using the homogeneous time-resolved fluorescence (HTRF) assay (Cisbio). Inhibitors and DMSO normalizations were first dispensed to empty black low-volume 384-well plates (Corning) with D300 digital liquid dispenser (HP). All reactions were carried out at room temperature and solutions were added to plates with a Multidrop Combi Reagent Dispenser (ThermoFisher). The reaction mixture (10 µL final volume) contained 1 µM tyrosine kinase peptide-biotin substrate and mutant EGFR in a reaction buffer (50 mM HEPES pH 7.0, 5 mM MgCl2, 1 mM MnCl2, 0.01% BSA, 2 mM TCEP, 0.1 mM NaVO4). Enzyme concentrations were adjusted to accommodate varying kinase activities (L858R 0.1 nM, L858R/T790M 0.02 nM). Enzyme reaction solution (2× concentrations, 5 µL) was added to 384-well plates containing compounds and incubated for 30 mins. Enzyme reactions were initiated with the addition of 5 µL of ATP to a final concentration of 100 µM and reacted for 20 mins. Reactions were quenched with the addition of 10 µL of phospho-tyrosine antibody-Europium(III) cryptate (1-to-180 volume ratio) and Streptavidin-XL665 (46.7 nM) in EDTA-containing detection buffer, then incubated at room temperature for 1 hour, and read with a PHERAstar plate reader (excitation = 337 nm, emission = 620 nm and 665 nm). IC50 values were determined by inhibition curves (11-point curves from 1.0 µM to 0.130 nM or 23-point curves from 1.0 µM to 0.130 pM) in triplicate with non-linear least squares fit in GraphPad Prism 7.0d.

In the next assay the target is EGFR L858R (Homo sapiens, UniProt P00533, L858R). As to the kind of experiment: HTRF-based EGFR biochemical assay (L858R). The conditions noted are these: enzyme 0.1 nM, ATP 100 µM, 30 min preincubation. The method, then:
as §1

Sequence of EGFR L858R/T790M (P00533 25-1210 T790M/L858R): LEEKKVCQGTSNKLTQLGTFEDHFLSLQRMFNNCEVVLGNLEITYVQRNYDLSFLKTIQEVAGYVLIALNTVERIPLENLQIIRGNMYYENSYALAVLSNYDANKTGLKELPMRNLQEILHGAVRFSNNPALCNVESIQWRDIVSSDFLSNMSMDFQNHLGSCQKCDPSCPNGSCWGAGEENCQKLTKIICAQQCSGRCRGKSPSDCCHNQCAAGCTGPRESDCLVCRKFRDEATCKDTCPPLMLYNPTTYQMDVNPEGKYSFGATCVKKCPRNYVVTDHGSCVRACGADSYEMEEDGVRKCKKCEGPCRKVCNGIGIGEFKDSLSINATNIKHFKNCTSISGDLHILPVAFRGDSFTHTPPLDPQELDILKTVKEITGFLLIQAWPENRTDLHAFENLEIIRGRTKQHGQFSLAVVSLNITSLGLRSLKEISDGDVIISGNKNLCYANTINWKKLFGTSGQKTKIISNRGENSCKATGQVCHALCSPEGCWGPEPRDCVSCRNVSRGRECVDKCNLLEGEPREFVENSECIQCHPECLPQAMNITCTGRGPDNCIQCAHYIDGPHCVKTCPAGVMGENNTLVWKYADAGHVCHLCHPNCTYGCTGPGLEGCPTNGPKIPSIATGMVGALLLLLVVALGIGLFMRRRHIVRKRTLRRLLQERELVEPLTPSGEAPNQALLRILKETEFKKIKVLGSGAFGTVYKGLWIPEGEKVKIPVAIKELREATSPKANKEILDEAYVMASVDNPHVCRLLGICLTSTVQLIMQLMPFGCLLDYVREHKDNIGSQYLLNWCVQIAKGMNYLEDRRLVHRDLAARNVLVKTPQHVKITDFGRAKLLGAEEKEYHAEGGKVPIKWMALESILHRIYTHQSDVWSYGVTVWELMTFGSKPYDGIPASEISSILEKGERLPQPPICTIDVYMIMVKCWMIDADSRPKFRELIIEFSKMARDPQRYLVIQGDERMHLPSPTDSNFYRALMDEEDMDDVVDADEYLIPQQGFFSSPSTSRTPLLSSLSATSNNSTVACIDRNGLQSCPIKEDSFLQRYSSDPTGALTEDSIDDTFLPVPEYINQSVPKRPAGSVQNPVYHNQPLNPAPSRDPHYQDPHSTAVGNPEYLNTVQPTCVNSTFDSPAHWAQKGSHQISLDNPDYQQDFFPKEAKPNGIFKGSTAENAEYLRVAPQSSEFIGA
Sequence of EGFR L858R (P00533 25-1210 L858R): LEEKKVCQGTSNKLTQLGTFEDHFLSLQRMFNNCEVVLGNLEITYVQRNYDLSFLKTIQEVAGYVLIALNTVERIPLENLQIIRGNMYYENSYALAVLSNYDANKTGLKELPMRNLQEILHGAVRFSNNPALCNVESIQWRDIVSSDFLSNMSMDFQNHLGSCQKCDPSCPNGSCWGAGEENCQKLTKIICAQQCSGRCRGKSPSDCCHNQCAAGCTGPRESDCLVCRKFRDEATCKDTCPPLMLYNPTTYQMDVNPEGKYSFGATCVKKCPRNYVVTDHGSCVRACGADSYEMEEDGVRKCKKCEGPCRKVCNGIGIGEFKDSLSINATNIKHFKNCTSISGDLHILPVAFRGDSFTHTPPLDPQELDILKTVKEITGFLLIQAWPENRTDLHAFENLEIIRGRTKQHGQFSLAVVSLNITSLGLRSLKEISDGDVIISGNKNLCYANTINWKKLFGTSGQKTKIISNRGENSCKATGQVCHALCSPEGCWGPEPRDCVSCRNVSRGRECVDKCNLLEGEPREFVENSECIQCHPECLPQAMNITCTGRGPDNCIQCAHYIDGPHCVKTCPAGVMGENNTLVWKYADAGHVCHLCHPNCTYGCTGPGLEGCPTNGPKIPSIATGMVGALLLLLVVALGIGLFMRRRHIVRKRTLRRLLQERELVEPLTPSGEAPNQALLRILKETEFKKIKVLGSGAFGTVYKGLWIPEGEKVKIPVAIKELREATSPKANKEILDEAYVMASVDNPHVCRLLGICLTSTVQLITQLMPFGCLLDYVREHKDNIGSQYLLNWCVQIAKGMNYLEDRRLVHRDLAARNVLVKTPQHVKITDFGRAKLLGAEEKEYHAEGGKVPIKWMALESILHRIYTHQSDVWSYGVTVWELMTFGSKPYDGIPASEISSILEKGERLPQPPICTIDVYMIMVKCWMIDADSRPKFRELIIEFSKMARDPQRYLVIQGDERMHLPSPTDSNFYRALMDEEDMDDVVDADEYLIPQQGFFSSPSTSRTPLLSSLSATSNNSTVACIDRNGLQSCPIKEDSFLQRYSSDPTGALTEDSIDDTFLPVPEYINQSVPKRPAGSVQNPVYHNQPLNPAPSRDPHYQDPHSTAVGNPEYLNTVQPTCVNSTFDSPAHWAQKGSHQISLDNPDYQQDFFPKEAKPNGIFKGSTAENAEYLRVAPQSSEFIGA

For `CN1CCC(c2ccc(-c3cc4ccn([C@H](c5nc6ccccc6[nH]5)c5cc(F)ccc5O)c(=O)c4s3)cc2)CC1` (single isomer, unassigned) [Compound 016], the half-maximal inhibitory concentration (IC50) against EGFR L858R/T790M was found to be 17 nM; against EGFR L858R, 41 nM.
The corresponding values for `CN1CCC(c2ccc(-c3cc4c(F)cn(C(C(=O)Nc5nccs5)c5cc(F)ccc5O)c(=O)c4s3)cc2)CC1` (stereo not shown) [Compound 019, 2-(4-Fluoro-2-(4-(1-Methylpiperidin-4-Yl)Phenyl)-7-Oxothieno[2,3-c]Pyridin-6(7H)-Yl)-2-(5-Fluoro-2-Hydroxyphenyl)-N-(Thiazol-2-Yl)Acetamide] are 0.5 nM and 0.7 nM.
As for `CN1CCC(c2ccc(-c3cc4c(F)cn(C(c5nc6ccccc6[nH]5)c5cc(F)ccc5O)c(=O)c4s3)cc2)CC1` (stereo not shown) [Compound 020, 6-((1H-Benzo[d]Imidazol-2-Yl)(5-Fluoro-2-Hydroxyphenyl)Methyl)-4-Fluoro-2-(4-(1-methylpiperidin-4-Yl)Phenyl)Thieno[2,3-c]Pyridin-7(6H)-One], the IC50 against EGFR L858R/T790M and on EGFR L858R was 0.2 nM throughout.
As to `CN1CCC(c2ccc(-c3nc4c(s3)C(=O)N(C(C(=O)Nc3nccs3)c3cc(F)ccc3O)CC4)cc2)CC1` (stereo not shown) [Compound 021, 2-(5-Fluoro-2-hydroxyphenyl)-2-(2-(4-(1-methylpiperidin-4-yl)phenyl)-4-oxo-6,7-dihydrothiazolo[5,4-c]pyridin-5(4H)-yl)-N-(thiazol-2-yl)acetamide], the half-maximal inhibitory concentration (IC50) worked out at 0.6 nM against EGFR L858R/T790M and 2 nM at EGFR L858R.
With `CN1CCC(c2ccc(-c3nc4c(s3)C(=O)N(C(c3nc5ccccc5[nH]3)c3cc(F)ccc3O)CC4)cc2)CC1` (stereo not shown) [Compound 022, 5-((1H-Benzo[d]imidazol-2-yl)(5-fluoro-2-hydroxyphenyl)methyl)-2-(4-(1-methylpiperidin-4-yl)phenyl)-6,7-dihydrothiazolo[5,4-c]pyridin-4(5H)-one], the 50% inhibitory concentration (IC50) on EGFR L858R/T790M turned out to be 11 nM; at EGFR L858R it was 12 nM.
As for `CN1CCC(c2ccc(-c3nc4ccn(C(c5nc6ccccc6[nH]5)c5cc(F)ccc5O)c(=O)c4s3)cc2)CC1` (stereo not shown) [Compound 023, 5-((1H-Benzo[d]imidazol-2-yl)(5-fluoro-2-hydroxyphenyl)methyl)-2-(4-(1-methylpiperidin-4-yl)phenyl)thiazolo[5,4-c]pyridin-4(5H)-one], the IC50 on EGFR L858R/T790M came to 3 nM; against EGFR L858R, 7 nM.
As for `[2H]C(c1nc2ccccc2[nH]1)(c1cc(F)ccc1O)n1ccc2cc(-c3ccc(C4CCN(C)CC4)cc3)sc2c1=O` (stereo not shown) [Compound 024, 6-((1H-Benzo[d]Imidazol-2-yl)(5-Fluoro-2-Hydroxyphenyl)Methyl-d)-2-(4-(1-Methylpiperidin-4-Yl)Phenyl)Thieno[2,3-c]Pyridin-7(6H)-One], the IC50 stood at 0.7 nM against EGFR L858R/T790M and 2 nM on EGFR L858R.
The corresponding values for `CN1CCC(c2ccc(-c3cc4ccn(C(c5ccccc5)c5cc6ccccc6[nH]5)c(=O)c4s3)cc2)CC1` (stereo not shown) [Compound 025, 6-((1H-Indol-2-Yl)(Phenyl)Methyl)-2-(4-(1-Methylpiperidin-4-Yl)Phenyl)Thieno[2,3-c]Pyridin-7(6H)-One] are 7 nM and 9 nM.
